# Measured values: US20220095617A1, “PLANT GROWTH REGULATING AGENT” (IDEMITSU KOSAN CO.,LTD., priority 2019, published 2022)
# Columns and labels:
# lettuce (Green Wave) [1] = assay: Example 4: High-temperature stress Petri dish test (lettuce), comparison with flavonoids; assay type: in vivo; details: 0.1 ppm
# lettuce (Green Wave) [2] = assay: Example 17: Growth-promoting effect (lettuce, seed treatment); assay type: in vivo; details: for Increase/decrease of above-ground part / Increase/decrease of underground part: non-addition group = 100%; for Weight of above-ground part FW / Weight of underground part FW: 25° C., 28 days
# Method: For lettuce (Green Wave, Takii & Co., Ltd.), seed dressing was carried out by application, at 5% seed weight, of a dilution of hesperidin prepared at a final concentration of 1 to 100 ppm (using water as the solvent). The dressed lettuce seeds were sown on a cell tray filled with seedling culture soil (manufactured by Nihon Hiryo Co., Ltd.; “Naebijin N100”). […]
# [3] = seed treatment (dressing) 1 ppm
# [4] = seed treatment (dressing) 10 ppm
# [5] = seed treatment (dressing) 100 ppm
compound,measurement,setting,value
COc1ccc([C@@H]2CC(=O)c3c(O)cc(O[C@@H]4O[C@H](CO[C@@H]5O[C@@H](C)[C@H](O)[C@@H](O)[C@H]5O)[C@@H](O)[C@H](O)[C@H]4O)cc3O2)cc1O [Hesperidin],Root length,"lettuce (Green Wave) [1]; High-temperature treatment (42° C., 1.5 hours)",16.5 mm
same,Root length,lettuce (Green Wave) [1]; Normal cultivation,23.1 mm
same,Increase/decrease of above-ground part,lettuce (Green Wave) [2]; 1 ppm,109%
same,Increase/decrease of underground part,lettuce (Green Wave) [2]; 1 ppm,133%
same,Increase/decrease of above-ground part,lettuce (Green Wave) [2]; 10 ppm,113%
same,Increase/decrease of underground part,lettuce (Green Wave) [2]; 10 ppm,142%
same,Increase/decrease of above-ground part,lettuce (Green Wave) [2]; 100 ppm,149%
same,Increase/decrease of underground part,lettuce (Green Wave) [2]; 100 ppm,126%
same,Weight of above-ground part FW,lettuce (Green Wave) [2]; [3],27.4 mg/individual
same,Weight of underground part FW,lettuce (Green Wave) [2]; [3],7.6 mg/individual
same,Weight of above-ground part FW,lettuce (Green Wave) [2]; [4],28.3 mg/individual
same,Weight of underground part FW,lettuce (Green Wave) [2]; [4],8.1 mg/individual
same,Weight of above-ground part FW,lettuce (Green Wave) [2]; [5],37.4 mg/individual
same,Weight of underground part FW,lettuce (Green Wave) [2]; [5],7.2 mg/individual
